Reference: BindingDB's records for doi:10.1021/acsmedchemlett.6b00243 (Amgen, 2016)

Target: Sodium channel protein type 5 subunit alpha (Homo sapiens, UniProt Q14524)
Test: Inhibition of human Nav1.5 expressed in HEK293 cells assessed as inhibition of sodium current at holding potential of -125 mV measured for 3 to 5 mins by whole cell voltage clamp method

Sodium channel protein type 5 subunit alpha, sequence (Q14524 whole entry): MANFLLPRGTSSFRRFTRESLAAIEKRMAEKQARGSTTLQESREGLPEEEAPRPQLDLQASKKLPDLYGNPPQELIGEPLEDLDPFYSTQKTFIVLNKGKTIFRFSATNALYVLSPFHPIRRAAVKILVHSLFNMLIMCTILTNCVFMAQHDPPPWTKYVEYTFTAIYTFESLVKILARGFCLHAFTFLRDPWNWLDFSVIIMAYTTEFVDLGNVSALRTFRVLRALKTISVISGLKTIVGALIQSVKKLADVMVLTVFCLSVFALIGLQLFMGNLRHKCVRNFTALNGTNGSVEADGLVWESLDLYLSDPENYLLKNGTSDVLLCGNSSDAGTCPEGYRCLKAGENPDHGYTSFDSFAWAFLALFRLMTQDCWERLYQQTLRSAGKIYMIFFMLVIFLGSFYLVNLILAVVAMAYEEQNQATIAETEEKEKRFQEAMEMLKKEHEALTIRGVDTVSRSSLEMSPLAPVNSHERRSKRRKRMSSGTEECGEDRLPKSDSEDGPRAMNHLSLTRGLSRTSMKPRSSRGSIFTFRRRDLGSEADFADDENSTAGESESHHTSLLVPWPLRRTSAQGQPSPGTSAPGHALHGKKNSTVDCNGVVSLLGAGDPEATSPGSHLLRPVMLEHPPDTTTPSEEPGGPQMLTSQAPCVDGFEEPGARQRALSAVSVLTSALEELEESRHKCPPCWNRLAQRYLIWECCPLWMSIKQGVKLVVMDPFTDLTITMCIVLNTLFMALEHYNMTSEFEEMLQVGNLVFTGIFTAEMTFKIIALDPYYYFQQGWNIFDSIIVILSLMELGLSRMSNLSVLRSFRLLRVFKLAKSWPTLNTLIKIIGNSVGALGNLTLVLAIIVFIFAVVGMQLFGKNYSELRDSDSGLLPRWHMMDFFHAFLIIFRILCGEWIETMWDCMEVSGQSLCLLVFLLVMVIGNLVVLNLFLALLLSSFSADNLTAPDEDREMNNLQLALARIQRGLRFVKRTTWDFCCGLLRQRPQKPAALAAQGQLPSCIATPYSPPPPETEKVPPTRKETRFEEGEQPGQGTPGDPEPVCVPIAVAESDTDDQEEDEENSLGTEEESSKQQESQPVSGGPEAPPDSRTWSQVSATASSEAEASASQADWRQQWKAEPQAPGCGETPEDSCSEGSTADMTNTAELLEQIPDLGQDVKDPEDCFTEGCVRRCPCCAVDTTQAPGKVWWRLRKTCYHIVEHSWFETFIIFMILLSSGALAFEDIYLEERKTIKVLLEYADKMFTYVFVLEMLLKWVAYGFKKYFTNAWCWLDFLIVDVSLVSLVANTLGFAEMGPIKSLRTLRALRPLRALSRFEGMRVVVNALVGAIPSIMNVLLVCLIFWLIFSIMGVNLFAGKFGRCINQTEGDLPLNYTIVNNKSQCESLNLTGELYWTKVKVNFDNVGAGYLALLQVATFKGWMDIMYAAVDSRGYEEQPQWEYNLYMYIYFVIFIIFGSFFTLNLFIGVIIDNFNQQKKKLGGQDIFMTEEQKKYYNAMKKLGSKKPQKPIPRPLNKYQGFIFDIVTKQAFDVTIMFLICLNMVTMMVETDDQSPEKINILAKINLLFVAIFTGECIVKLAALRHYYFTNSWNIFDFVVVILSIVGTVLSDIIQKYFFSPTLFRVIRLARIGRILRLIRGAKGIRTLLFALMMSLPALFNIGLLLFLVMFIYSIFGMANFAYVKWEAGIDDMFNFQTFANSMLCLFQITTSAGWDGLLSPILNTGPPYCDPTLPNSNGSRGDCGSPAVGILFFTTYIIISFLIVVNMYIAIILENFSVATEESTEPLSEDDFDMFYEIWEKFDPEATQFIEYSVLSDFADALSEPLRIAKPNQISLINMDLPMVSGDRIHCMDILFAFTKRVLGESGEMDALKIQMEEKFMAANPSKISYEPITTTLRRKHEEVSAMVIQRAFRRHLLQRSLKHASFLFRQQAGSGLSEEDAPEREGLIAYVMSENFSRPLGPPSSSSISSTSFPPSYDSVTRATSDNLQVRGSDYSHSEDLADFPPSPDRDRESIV

Row | SMILES | IC50 [µM]
1 | COc1cc(C(F)(F)F)ccc1-c1cnnc2cc(S(=O)(=O)Nc3nccs3)ccc12 [US9012443, 259] | > 30
2 | COc1cc(C(F)(F)F)ccc1-c1n[nH]c(=O)c2cc(S(=O)(=O)Nc3nccs3)ccc12 [US9012443, 293] | > 30
